Assay [1] has as its target T1, Progesterone Receptor (PR) (Homo sapiens, UniProt P06401).
T1 sequence (P06401 679-933 limits assumed): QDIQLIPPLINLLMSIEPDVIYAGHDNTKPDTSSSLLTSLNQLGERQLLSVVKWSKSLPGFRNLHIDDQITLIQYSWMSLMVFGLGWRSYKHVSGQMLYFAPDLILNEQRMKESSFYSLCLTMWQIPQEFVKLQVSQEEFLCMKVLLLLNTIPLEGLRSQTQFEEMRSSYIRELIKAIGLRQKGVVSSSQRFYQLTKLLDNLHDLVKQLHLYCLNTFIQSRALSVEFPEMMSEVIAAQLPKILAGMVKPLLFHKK
The experiment in a line: Functional assay of progesterone receptor antagonism (progesterone-induced alkaline phosphatase activity in T-47D cells). It counts as cell-based. To be noted: antagonism of progesterone (3 nM)-induced PR activity, read-out: PR-T47D IC50. As to the method:
The PR antagonist activity of the compounds is determined by progesterone-induced alkaline phosphatase activity in the T-47D cell line (ATCC). In the T-47D breast cancer cells, progesterone specifically induces de novo synthesis of a membrane-associated alkaline phosphatase enzyme in a time and dose-dependent manner (Di Lorenzo et al., Cancer Research, 51: 4470-4475 (1991)). The alkaline phosphatase enzymatic activity can be measured with a chemiluminescent substrate, such as CSPD® (Applied Biosystems).
The assay is performed in 384 well plates. Briefly, T-47D cells are plated in 384 well plates at a density of approximately 2.5×10^4 cells/well in 50 μl medium supplemented with 10% fetal bovine serum. Twenty four hours later, the medium is aspirated. New medium that is free of phenol red and serum is added to the cells. Compounds prepared in DMSO are transferred to the cells. The cells are then stimulated with 3 nM final concentration of progesterone (Sigma) and incubated at 37° C. for another 24 hours before the alkaline phosphatase is assayed with 25 μl of CSPD® (Applied Biosystems) using a luminometer (CLIPR). The expression of alkaline phosphatase is used as an indicator of progesterone-induced PR trans-activation. Each compound is tested in duplicates with a 12-concentration titration. IC50 values (defined as the concentration of test compound required to antagonize 50% of progesterone-induced PR activity) are determined from the dose-response curve.

In assay [2] the target is T2, Androgen Receptor (AR) (Homo sapiens, UniProt P10275).
T2 sequence (P10275 1-920 Q868H): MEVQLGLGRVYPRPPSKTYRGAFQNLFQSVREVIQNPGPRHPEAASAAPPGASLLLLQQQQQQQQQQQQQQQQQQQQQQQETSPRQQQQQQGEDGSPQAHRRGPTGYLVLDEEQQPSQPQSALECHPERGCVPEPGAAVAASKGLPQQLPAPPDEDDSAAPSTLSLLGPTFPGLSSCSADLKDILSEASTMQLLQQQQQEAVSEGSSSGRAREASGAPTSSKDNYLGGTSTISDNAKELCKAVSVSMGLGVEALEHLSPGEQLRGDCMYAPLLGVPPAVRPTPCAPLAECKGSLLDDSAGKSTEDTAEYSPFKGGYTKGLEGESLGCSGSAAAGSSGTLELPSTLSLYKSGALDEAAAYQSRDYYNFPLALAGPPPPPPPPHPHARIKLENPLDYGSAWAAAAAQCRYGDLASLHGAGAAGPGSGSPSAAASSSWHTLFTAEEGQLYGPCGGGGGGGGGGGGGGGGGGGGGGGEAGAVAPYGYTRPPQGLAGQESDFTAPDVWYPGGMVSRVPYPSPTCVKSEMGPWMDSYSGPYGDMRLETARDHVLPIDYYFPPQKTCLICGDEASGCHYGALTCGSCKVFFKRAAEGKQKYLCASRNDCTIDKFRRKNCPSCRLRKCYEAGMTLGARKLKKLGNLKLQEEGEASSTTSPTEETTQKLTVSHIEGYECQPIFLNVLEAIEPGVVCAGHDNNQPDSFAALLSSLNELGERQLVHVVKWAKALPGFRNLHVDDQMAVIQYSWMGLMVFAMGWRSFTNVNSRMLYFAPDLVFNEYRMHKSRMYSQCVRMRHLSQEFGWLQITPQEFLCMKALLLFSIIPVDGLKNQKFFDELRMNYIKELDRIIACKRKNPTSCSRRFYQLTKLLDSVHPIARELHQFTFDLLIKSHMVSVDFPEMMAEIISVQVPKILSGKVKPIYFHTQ
The experiment in a line: Functional assay of androgen receptor antagonism (MMTV luciferase reporter in MDA-kb2 cells). To be noted: antagonism of dihydrotestosterone (0.3 nM)-induced AR activity. Type of assay: cell-based. The procedure: The AR antagonist activity of the compounds is determined with the MDA-Kb2 cell line (ATCC), which stably expresses the MMTV luciferase reporter. The MMTV promoter is a mouse mammary tumor virus promoter that contains androgen receptor response elements. […] Upon stimulation with AR ligands, such as dihydrotestosterone, the MMTV luciferase reporter can be activated.
The assay is performed in 384 well plates. Briefly, MDA-kb2 cells are plated in 384 well plates at a density of approximately 2.4×10^4 cells/well in 50 μl medium. The medium is supplemented with 5% charcoal-dextran treated fetal bovine serum (Hyclone). Twenty four hours later, compounds prepared in DMSO are transferred to the cells. The cells are then stimulated with 0.3 nM final concentration of dihydrotestosterone (Sigma) and incubated at 37° C. for another 24 hours before the luciferase activity is assayed with 20 μl of Bright-Glo (Promega) using a luminometer (CLIPR). The expression of luciferase is used as an indicator of dihydrotestosterone-induced AR trans-activation. Each compound is tested in duplicates with a 12-concentration titration. IC50 values (defined as the concentration of test compound required to antagonize 50% of dihydrotestosterone-induced AR activity) are determined from the dose-response curve.

For `CC12CCC(=O)N1CC1(O2)c2ccccc2C=Cc2ccccc21` (single isomer, unassigned) [FRS-1 (Chiral Synthesis)], the values for the 50% inhibitory concentration (IC50) in assay [1] and in assay [2] were > 10 µM and 0.1 to 1 µM, respectively.

On to `CC12CCC(=O)N1CC1(O2)c2ccccc2CCc2ccccc21` (single isomer, unassigned) [FRS-13 (Chiral Synthesis)], for which the values for the half-inhibitory concentration (IC50) in assay [1] and in assay [2] were > 10 µM and 0.1 to 1 µM, respectively.

Turning to `CC12CCC(=O)N1CC1(O2)c2ccccc2C=Cc2ccccc21` (centres unmarked) [FRS-1], the values for the concentration for half-maximal inhibition (IC50) in assay [1] and in assay [2] were > 10 µM and 0.1 to 1 µM, respectively.

For the compound `O=C1CCC2(c3ccccc3)OC3(CN12)c1ccccc1C=Cc1ccccc13` (centres unmarked) [FRS-2], the 50% inhibitory concentration (IC50) in assay [1] was > 10 µM; in assay [2], 0.1 to 1 µM.

Take `O=C1CCC2(c3ccc(F)cc3)OC3(CN12)c1ccccc1C=Cc1ccccc13` (centres unmarked) [FRS-3]: the concentration for half-maximal inhibition (IC50) in assay [1] is > 10 µM; in assay [2], 1 to 10 µM.

Regarding `CC12CCCC(=O)N1CC1(O2)c2ccccc2C=Cc2ccccc21` (centres unmarked) [FRS-4], the IC50 in assay [1] is 1 to 10 µM; in assay [2] it was > 10 µM.

On to `COc1ccc(C23CCC(=O)N2CC2(O3)c3ccccc3C=Cc3ccccc32)cc1` (centres unmarked) [FRS-5], for which the IC50 in assay [1] and in assay [2] was > 10 µM each time.

Turning to `CC12CCCCC(=O)N1CC1(O2)c2ccccc2C=Cc2ccccc21` (centres unmarked) [FRS-6], the half-maximal inhibitory concentration (IC50) in assay [1] is > 10 µM; in assay [2], 1 to 10 µM.

In the case of `O=C1CCC2(c3cccs3)OC3(CN12)c1ccccc1C=Cc1ccccc13` (centres unmarked) [FRS-8], the IC50 fell in the range of 1 to 10 µM in assay [1] and 0.1 to 1 µM in assay [2].

Regarding `CCCC12CCC(=O)N1CC1(O2)c2ccccc2C=Cc2ccccc21` (centres unmarked) [FRS-9], the concentration for half-maximal inhibition (IC50) in assay [1] lay in the range of 1 to 10 µM; in assay [2], 0.1 to 1 µM.

As for `O=C1CCC2(C3CC3)OC3(CN12)c1ccccc1C=Cc1ccccc13` (centres unmarked) [FRS-10], the 50% inhibitory concentration (IC50) is > 10 µM in assay [1] and 0.1 to 1 µM in assay [2].

On to `O=C1CCCC2(C(F)(F)F)OC3(CN12)c1ccccc1C=Cc1ccccc13` (centres unmarked) [FRS-11], for which the concentration for half-maximal inhibition (IC50) in assay [1] is > 10 µM; in assay [2], 0.1 to 1 µM.

As for `CC12CCC(=O)N1CC1(O2)c2ccccc2CCc2ccccc21` (centres unmarked) [FRS-13], the half-maximal inhibitory concentration (IC50) in assay [1] is > 10 µM; in assay [2], 0.1 to 1 µM.

Consider `CC12CCCC(=O)N1CC1(O2)c2ccccc2CCc2ccccc21` (centres unmarked) [FRS-14], for which the IC50 in assay [1] and in assay [2] was 1 to 10 µM in each case.

Consider `Oc1ccc(C2=NCC3(O2)c2ccccc2C=Cc2ccccc23)cc1` [OXS-1], for which the IC50 in assay [1] was > 10 µM; in assay [2] it was 1 to 10 µM.

`CC1(C)OC2(CN1C(=O)Nc1ccc(F)cc1F)c1ccccc1C=Cc1ccccc12` [SOXS-1]: the IC50 in assay [1] is 1 to 10 µM; in assay [2], > 10 µM.

Consider `CC(=O)N1CC2(OC1(C)C)c1ccccc1C=Cc1ccccc12` [SOXS-3], for which the IC50 in assay [1] and in assay [2] was 1 to 10 µM in each case.

Regarding `CC1(C)OC2(CN1S(C)(=O)=O)c1ccccc1C=Cc1ccccc12` [SOXS-4], the IC50 in assay [1] lay in the range of 0.1 to 1 µM; in assay [2] it was 1 to 10 µM.

Turning to `CC(=O)N1CC2(OC13CCCCC3)c1ccccc1C=Cc1ccccc12` [SOXS-6], the half-inhibitory concentration (IC50) lay in the range of 0.1 to 1 µM in assay [1] and 1 to 10 µM in assay [2].

The IC50 is the concentration at which inhibition is half-maximal.

Source of the values: US7807841B2, “Spiro-containing compounds and compositions as modulators of steroid hormone nuclear receptors” (IRM LLC, priority 2005, dated 2010).
